Laboratory results from US4293483A, “Derivatives of A-30912A nucleus” (priority 1980, dated 1981).
Where two headings read alike, the source gives them in different places. Numbered stars: 1 amine (or outer) side, 2 acyl side, 3 side chain; on linkers, the order of the positions; unused ones are H or OH. Bridge positions count the residues as written; N and C are the ends. Square brackets hold non-standard residues; d marks the D form. Peptide text beside a SMILES is read from it. * marks the point of attachment. ξ: configuration not given here. Orn(4R-OH,5R-OH) = O=C([C@H](C[C@@H](O)[C@@H](O)N[*:3])N[*:1])[*:2]; hTyr(3S-OH,4S-OH) = N[C@H](C(=O)O)[C@H](O)[C@@H](O)c1ccc(O)cc1; Pro(3S-OH,4S-Me) = C[C@H]1CN[C@H](C(=O)O)[C@H]1O; 4Abz(2-Cl) = O=C(c1ccc(N[*:1])cc1Cl)[*:2]; X5 = O=C(c1cc(Cl)cc(N[*:1])c1Cl)[*:2]; X9 = COc1ccc(C(=O)[*:2])cc1N[*:1]; Hyp = O=C(O)[C@@H]1C[C@@H](O)CN1; X4 = Cc1cc(C(=O)[*:2])ccc1N[*:1]; X7 = Cc1ccc(C(=O)[*:2])cc1N[*:1]; X8 = O=C(c1ccc(N[*:1])cc1O)[*:2]; Lauroyl = CCCCCCCCCCCC(=O)*; Decanoyl = CCCCCCCCCC(=O)*; 3Abz = Nc1cccc(C(=O)O)c1; 4Abz = Nc1ccc(C(=O)O)cc1; Heptanoyl = CCCCCCC(=O)*; Octanoyl = CCCCCCCC(=O)*; ξF = NC(Cc1ccccc1)C(=O)O; Aun = NCCCCCCCCCCC(=O)O

Legend:
[1] = mouse, in vivo, 416 mg/kg, 240 min
Procedure: In this test, mice are gavaged with a dose of 416 mg/kg of the test compound suspended in 33% PEG 400-water. At time intervals, blood samples are taken from the orbital sinus and are assayed for antibiotic activity as follows: A 7 mm. disc containing 20 μl of whole blood is placed on agar seeded with Aspergillus montevidensis A35137. After 40 hours incubation at 30° C. zones of inhibition from the blood samples are compared to a standard obtained from the test compound, and the amount of compound in the blood sample is calculated.

[2] = test system: Trichophyton mentagrophytes; test: Agar plate disc diffusion test, zone of inhibition; type: cell-based; conditions: 7 mm disc
Procedure: (§1) ^(a) Compounds were tested as suspension in methanol.
(§2) were tested at a concentration of 1 mg/ml by a dipping 7mm disc into the
(§3) suspension and placing it on the agar surface. Incubation: 24-48 hours at

[3] = test system: Candida albicans A-26; test: Agar plate disc diffusion test, MIC per disc; type: cell-based; conditions: 0.01M sodium borate, pH 7.5, 24 hours at 30° C.
Procedure: (§4) In Table 5, activity is measured by the minimal inhibitory concentration (MIC) of the substance (μg/disc) required to inhibit growth of the test organism.
(§5) *Compounds were suspended in 0.01M sodium borate solution, pH 7.5.
(§6) compounds were tested at 20 μg/disc at top level and at twofold
(§7) dilutions until end points were reached.

[4] = test system: Candida albicans A-26; test: Agar plate disc diffusion test, zone of inhibition; type: cell-based; conditions: 7 mm disc; for Size of Zone of Inhibition: 1 mg/ml suspension in methanol, 24-48 hours at 25-37° C., no regrowth mark
Procedure: as §1, §2, §3

[5] = test system: Neurospora Crassa 846; test: Agar plate disc diffusion test, zone of inhibition; type: cell-based; conditions: Neurospora crassa, 7 mm disc
Procedure: as §1, §2, §3

[6] = test system: Trychophyton mentagrophytes #6; test: Agar plate disc diffusion test, MIC per disc; type: cell-based; conditions: 0.01M sodium borate, pH 7.5, 24 hours at 30° C.
Procedure: as §4, §5, §6, §7

[7] = test system: Saccharomyces pastorianus X-52; test: Agar plate disc diffusion test, zone of inhibition; type: cell-based; conditions: Saccharomyces pastorianus, X52, 48 h, Saccharomyces pastorianus X-52; 1 mg/ml suspension in methanol, 7 mm disc; 24-48 hours at 25-37° C.; read-out: Size of Zone of Inhibition
Procedure: as §1, §2, §3

[8] = test system: Candida albicans A-26; test: Therapeutic activity against Candida albicans A-26 infection in mice; type: in vivo; conditions: A26, sc
Procedure: The results of in vivo tests to evaluate the effectiveness of the compound of Examples 61-81, 86 and 88 against an infection caused by Candida albicans A-26 in mice are given in Table 7, where activity is measured by the ED50 value (the dose in mg/kg. required to cure 50% of the test animals). Where an ED50 value was not obtained, activity is indicated by the lowest dose at which a significant anti-fungal effect is observed. In this test, groups of male albino mice (specific pathogen free), weighing 18 to 20 grams, are infected intravenously with Candida albicans A-26. The animals are X-irradiated 24 hours prior to infection at about 50 roentgens per minute for 8 minutes (400 total dose) to reduce immune responses to the infecting organism. At 0, 4, and 24 hours post infection each group of mice is given graded doses subcutaneously of the test compound as a suspension in 33% polyethylene glycol-water. The day of death for each animal is recorded.
*Dosage Schedule: 40, 20, 15, and 10 mg/kg. Dosages given 0, 4, and 24
hours post injection as suspension of test compound in 30% PEGH2 O.
Number of mice receiving test compounds at each dosage level: 6 mice per
group. Number of mice in control (untreated) group: 10 mice per group.
**As measured by increase in survival time of treated animals versus
control, calculated by method of Reed V. Mueuch, American J. Hygiene, 493

[9] = 1 mg/ml, * measurable zone of inhibition with regrowth of organism around disc, read-out: Size of Zone of Inhibition (*)
[10] = CRASSA846, Neurospora Crassa 846, 1 mg/ml, * measurable zone of inhibition with regrowth of organism around disc, read-out: Size of Zone of Inhibition (*)
[11] = subcutaneous at 0, 4 and 24 hours post infection, dose to cure 50% of test animals, by increase in survival time, read-out: ED50
[12] = subcutaneous at 0, 4 and 24 hours post infection, lowest dose with significant anti-fungal effect, read-out: Lowest Active Dose
[13] = read-out: Lowest Active Dose, subcutaneous at 0, 4 and 24 hours post infection, lowest dose with significant anti-fungal effect

Structure (SMILES) | Blood Levels [1] [µg/mL] | zone of inhibition at 1000 µg/mL [2, 9] [mm] | MIC [3] [μg/disc] | Size of Zone of Inhibition [4] [mm] | zone of inhibition at 1000 µg/mL [5, 10] [mm] | MIC [6] [μg/disc] | zone of inhibition at 1000 µg/mL [7] [mm] | ED50 [8, 11] [mg/kg] | minimal effective dose [8, 12] [mg/kg] | zone of inhibition at 1000 µg/mL ([2]; 48 h, 1 mg/ml suspension in methanol, 24-48 hours at 25-37° C., no regrowth mark, read-out: Size of Zone of Inhibition) [mm] | Size of Zone of Inhibition (*) ([4]; 1 mg/ml, * measurable zone of inhibition with regrowth of organism around disc) [mm] | zone of inhibition at 1000 µg/mL ([5]; CRASSA846, 48 h, Neurospora Crassa 846, 1 mg/ml suspension in methanol, 24-48 hours at 25-37° C., no regrowth mark, read-out: Size of Zone of Inhibition) [mm] | ED50 [8] [mg/kg] | minimal effective dose [8, 13] [mg/kg]
CCCCCCCCCCCC(=O)NC(Cc1ccccc1)C(=O)N[C@H]1C[C@@H](O)[C@@H](O)NC(=O)[C@@H]2[C@@H](O)[C@@H](C)CN2C(=O)[C@H]([C@@H](C)O)NC(=O)[C@H]([C@H](O)[C@@H](O)c2ccc(O)cc2)NC(=O)[C@@H]2C[C@@H](O)CN2C(=O)[C@H]([C@@H](C)O)NC1=O (stereo partly drawn) [Example 61] (Lauroyl-[ξF][Orn(4R-OH,5R-OH)]T[Hyp][hTyr(3S-OH,4S-OH)]T[Pro(3S-OH,4S-Me)]; lactam 2-C) | 0 | 55 | 0.625 | 25 | 42 | < 0.039 | 18 | > 40 | > 40 | – | – | – | – | –
CCCCCCCCCCCC(=O)Nc1cccc(C(=O)N[C@H]2C[C@@H](O)[C@@H](O)NC(=O)[C@@H]3[C@@H](O)[C@@H](C)CN3C(=O)[C@H]([C@@H](C)O)NC(=O)[C@H]([C@H](O)[C@@H](O)c3ccc(O)cc3)NC(=O)[C@@H]3C[C@@H](O)CN3C(=O)[C@H]([C@@H](C)O)NC2=O)c1 [Example 65] ({Lauroyl-3Abz}-[Orn(4R-OH,5R-OH)]T[Hyp][hTyr(3S-OH,4S-OH)]T[Pro(3S-OH,4S-Me)]; lactam 1-C) | 0 | – | 5.0 | 20 | – | < 0.039 | 17 | > 40 | > 40 | – | – | – | – | –
CCCCCCCCCCCC(=O)Nc1ccc(C(=O)N[C@H]2C[C@@H](O)[C@@H](O)NC(=O)[C@@H]3[C@@H](O)[C@@H](C)CN3C(=O)[C@H]([C@@H](C)O)NC(=O)[C@H]([C@H](O)[C@@H](O)c3ccc(O)cc3)NC(=O)[C@@H]3C[C@@H](O)CN3C(=O)[C@H]([C@@H](C)O)NC2=O)c(O)c1 [Example 66] (Lauroyl-[X8][Orn(4R-OH,5R-OH)]T[Hyp][hTyr(3S-OH,4S-OH)]T[Pro(3S-OH,4S-Me)]; lactam 2-C) | 0 | – | 1.25 | 23 | – | < 0.039 | 18 | > 40 | 40 | – | – | – | – | –
CCCCCCCCCCCC(=O)Nc1cc(C(=O)N[C@H]2C[C@@H](O)[C@@H](O)NC(=O)[C@@H]3[C@@H](O)[C@@H](C)CN3C(=O)[C@H]([C@@H](C)O)NC(=O)[C@H]([C@H](O)[C@@H](O)c3ccc(O)cc3)NC(=O)[C@@H]3C[C@@H](O)CN3C(=O)[C@H]([C@@H](C)O)NC2=O)ccc1C [Example 69] (Lauroyl-[X7][Orn(4R-OH,5R-OH)]T[Hyp][hTyr(3S-OH,4S-OH)]T[Pro(3S-OH,4S-Me)]; lactam 2-C) | 0 | – | > 20 | 16 | 30 | < 0.039 | 17 | > 40 | > 40 | – | – | – | – | –
CCCCCCCCCCCC(=O)Nc1ccc(C(=O)N[C@H]2C[C@@H](O)[C@@H](O)NC(=O)[C@@H]3[C@@H](O)[C@@H](C)CN3C(=O)[C@H]([C@@H](C)O)NC(=O)[C@H]([C@H](O)[C@@H](O)c3ccc(O)cc3)NC(=O)[C@@H]3C[C@@H](O)CN3C(=O)[C@H]([C@@H](C)O)NC2=O)cc1C [Example 70] (Lauroyl-[X4][Orn(4R-OH,5R-OH)]T[Hyp][hTyr(3S-OH,4S-OH)]T[Pro(3S-OH,4S-Me)]; lactam 2-C) | 0 | 45 | 20 | 26 | 25 | < 0.039 | 19 | > 40 | > 40 | – | – | – | – | –
CCCCCCCCCCCC(=O)Nc1cc(C(=O)N[C@H]2C[C@@H](O)[C@@H](O)NC(=O)[C@@H]3[C@@H](O)[C@@H](C)CN3C(=O)[C@H]([C@@H](C)O)NC(=O)[C@H]([C@H](O)[C@@H](O)c3ccc(O)cc3)NC(=O)[C@@H]3C[C@@H](O)CN3C(=O)[C@H]([C@@H](C)O)NC2=O)ccc1OC [Example 71] (Lauroyl-[X9][Orn(4R-OH,5R-OH)]T[Hyp][hTyr(3S-OH,4S-OH)]T[Pro(3S-OH,4S-Me)]; lactam 2-C) | – | 50 | – | 20 | 32 | – | 10 | > 40 | > 40 | – | – | – | – | –
CCCCCCC(=O)NCCCCCCCCCCC(=O)N[C@H]1C[C@@H](O)[C@@H](O)NC(=O)[C@@H]2[C@@H](O)[C@@H](C)CN2C(=O)[C@H]([C@@H](C)O)NC(=O)[C@H]([C@H](O)[C@@H](O)c2ccc(O)cc2)NC(=O)[C@@H]2C[C@@H](O)CN2C(=O)[C@H]([C@@H](C)O)NC1=O [Example 76] ({Heptanoyl-Aun}-[Orn(4R-OH,5R-OH)]T[Hyp][hTyr(3S-OH,4S-OH)]T[Pro(3S-OH,4S-Me)]; lactam 1-C) | 0 | 35 | – | 10 | 20 | 0.625 | – | > 40 | > 40 | – | – | – | – | –
CCCCCCC(=O)Nc1ccc(C(=O)N[C@H]2C[C@@H](O)[C@@H](O)NC(=O)[C@@H]3[C@@H](O)[C@@H](C)CN3C(=O)[C@H]([C@@H](C)O)NC(=O)[C@H]([C@H](O)[C@@H](O)c3ccc(O)cc3)NC(=O)[C@@H]3C[C@@H](O)CN3C(=O)[C@H]([C@@H](C)O)NC2=O)cc1 [Example 78] ({Heptanoyl-4Abz}-[Orn(4R-OH,5R-OH)]T[Hyp][hTyr(3S-OH,4S-OH)]T[Pro(3S-OH,4S-Me)]; lactam 1-C) | – | – | – | – | – | 1.25 | 20 | – | – | 14 | 45 | 25 | > 40 | > 40
CCCCCCCCCC(=O)Nc1ccc(C(=O)N[C@H]2C[C@@H](O)[C@@H](O)NC(=O)[C@@H]3[C@@H](O)[C@@H](C)CN3C(=O)[C@H]([C@@H](C)O)NC(=O)[C@H]([C@H](O)[C@@H](O)c3ccc(O)cc3)NC(=O)[C@@H]3C[C@@H](O)CN3C(=O)[C@H]([C@@H](C)O)NC2=O)cc1 [Example 79] ({Decanoyl-4Abz}-[Orn(4R-OH,5R-OH)]T[Hyp][hTyr(3S-OH,4S-OH)]T[Pro(3S-OH,4S-Me)]; lactam 1-C) | – | – | 0.625 | 24 | 30 | – | 17 | – | – | – | – | – | 26 | 5
CCCCCCCC(=O)Nc1ccc(C(=O)N[C@H]2C[C@@H](O)[C@@H](O)NC(=O)[C@@H]3[C@@H](O)[C@@H](C)CN3C(=O)[C@H]([C@@H](C)O)NC(=O)[C@H]([C@H](O)[C@@H](O)c3ccc(O)cc3)NC(=O)[C@@H]3C[C@@H](O)CN3C(=O)[C@H]([C@@H](C)O)NC2=O)c(Cl)c1 [Example 86] (Octanoyl-[4Abz(2-Cl)][Orn(4R-OH,5R-OH)]T[Hyp][hTyr(3S-OH,4S-OH)]T[Pro(3S-OH,4S-Me)]; lactam 2-C) | – | – | – | – | – | – | – | 29 | 10 | – | – | – | – | –
CCCCCCCC(=O)Nc1cc(Cl)cc(C(=O)N[C@H]2C[C@@H](O)[C@@H](O)NC(=O)[C@@H]3[C@@H](O)[C@@H](C)CN3C(=O)[C@H]([C@@H](C)O)NC(=O)[C@H]([C@H](O)[C@@H](O)c3ccc(O)cc3)NC(=O)[C@@H]3C[C@@H](O)CN3C(=O)[C@H]([C@@H](C)O)NC2=O)c1Cl [Example 88] (Octanoyl-[X5][Orn(4R-OH,5R-OH)]T[Hyp][hTyr(3S-OH,4S-OH)]T[Pro(3S-OH,4S-Me)]; lactam 2-C) | – | – | – | – | – | – | – | – | – | – | – | – | > 40 | 20
